Legend:
COX-1 = target: T1, COX-1 (Canis lupus familiaris, UniProt Q8HZR1); conditions: cited from earlier work
T1 sequence (Q8HZR1 28-603): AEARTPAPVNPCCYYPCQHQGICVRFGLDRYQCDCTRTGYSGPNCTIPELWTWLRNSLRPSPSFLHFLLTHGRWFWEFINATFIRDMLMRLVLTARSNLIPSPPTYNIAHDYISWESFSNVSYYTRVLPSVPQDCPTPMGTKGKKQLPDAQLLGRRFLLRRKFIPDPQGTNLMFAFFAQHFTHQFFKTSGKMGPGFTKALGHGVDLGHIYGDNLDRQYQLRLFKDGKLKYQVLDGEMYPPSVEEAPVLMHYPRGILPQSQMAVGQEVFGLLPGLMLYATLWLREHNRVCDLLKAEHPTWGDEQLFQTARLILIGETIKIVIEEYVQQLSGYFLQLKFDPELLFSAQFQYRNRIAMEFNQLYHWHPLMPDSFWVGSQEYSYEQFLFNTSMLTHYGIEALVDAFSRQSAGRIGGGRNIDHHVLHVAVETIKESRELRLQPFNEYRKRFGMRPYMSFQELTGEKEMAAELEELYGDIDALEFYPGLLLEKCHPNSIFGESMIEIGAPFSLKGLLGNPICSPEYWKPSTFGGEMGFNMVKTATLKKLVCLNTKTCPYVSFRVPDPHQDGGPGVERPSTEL

COX-2 = target: T2, COX-2 (Canis lupus familiaris, UniProt Q8SPQ9); conditions: canine, relative to COX-1 column; cited from earlier work
T2 sequence (Q8SPQ9 18-604): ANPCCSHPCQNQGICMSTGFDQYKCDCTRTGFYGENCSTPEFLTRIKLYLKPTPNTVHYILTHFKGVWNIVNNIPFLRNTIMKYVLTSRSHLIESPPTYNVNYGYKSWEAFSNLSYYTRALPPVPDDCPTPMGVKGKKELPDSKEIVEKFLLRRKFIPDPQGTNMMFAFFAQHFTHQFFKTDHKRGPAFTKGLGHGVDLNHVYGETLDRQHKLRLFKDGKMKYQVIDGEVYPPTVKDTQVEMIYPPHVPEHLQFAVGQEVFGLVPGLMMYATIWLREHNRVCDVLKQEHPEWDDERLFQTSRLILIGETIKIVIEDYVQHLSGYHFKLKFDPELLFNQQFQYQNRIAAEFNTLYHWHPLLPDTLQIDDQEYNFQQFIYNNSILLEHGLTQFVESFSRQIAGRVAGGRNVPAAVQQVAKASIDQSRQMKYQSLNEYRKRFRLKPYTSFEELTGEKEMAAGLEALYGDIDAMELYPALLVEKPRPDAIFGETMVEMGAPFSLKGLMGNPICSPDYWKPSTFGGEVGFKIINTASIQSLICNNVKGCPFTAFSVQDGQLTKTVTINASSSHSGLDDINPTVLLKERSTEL

tetrameric avidin [1] = target: T3, tetrameric avidin (Gallus gallus, UniProt P02701); conditions: previous studies; cited from earlier work
T3 construct: purchased Sigma-Aldrich

tetrameric avidin [2] = target: T3, tetrameric avidin; experiment: RPM (x-ray fluorescence) measurement of sulfur in avidin-biotin complex versus avidin; assay type: binding; conditions: 500 micrograms avidin, 0.20 millimolar biotin, pH 8.0, after ultrafiltration
Source text: Previous studies have shown that the ratio of sulfur in avidin-biotin:avidin is 19.5:16, or 1.22, see Green N. Mex. Purification of Avidin. Meth Enzymol. 1970, XVIII(A):414-417. […] We treated an avidin control sample identically. We used RPM to measure the sulfur content of the avidin-biotin complex and the avidin. We confirmed that the amount of avidin in each sample was identical using bicinchoninic acid protein assay kit (Pierce). As predicted, the avidin-biotin complex contained 1.2 times the sulfur than the avidin alone as measured by RPM.

avidin = avidin (Gallus gallus, UniProt P02701); conditions: 200 micrograms avidin and 0.20 millimolar LPA, same filtering
Description: […] We diluted this sample to 0.75 ml in TRIS buffer (pH 8.0), centrifuged for 2 hours at 7000 g, and repeated this process twice.

T3 sequence (P02701 25-152): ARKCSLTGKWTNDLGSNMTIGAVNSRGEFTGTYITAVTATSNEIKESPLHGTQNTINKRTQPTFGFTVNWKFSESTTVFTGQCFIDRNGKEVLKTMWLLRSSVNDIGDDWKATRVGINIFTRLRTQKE
avidin, sequence (P02701 25-152): as above

Q: With `CC(C(=O)O)c1cccc(C(=O)c2ccccc2)c1` (stereo not drawn) [Ketoprofen] as the compound, how does the “selectivity in favor of COX-1 versus COX-2” value (COX-1; according to TABLE 3) read?
A: The value was 1 to 0.6.

Q: What about the “selectivity data, COX-1” value (COX-1; canine, relative to COX-2 column) of the same compound?
A: The value was 1.

Q: And the “selectivity data, COX-2” value (COX-2)?
A: The value was “.6”.

Q: With `O=C(O)CCCC[C@@H]1SC[C@@H]2NC(=O)N[C@@H]21` [biotin] as the compound, how does the “ratio of sulfur in avidin-biotin:avidin” value (tetrameric avidin [1]) read?
A: Its value is 1.22.

Q: And the “sulfur in avidin-biotin complex relative to avidin alone as measured by RPM” value (tetrameric avidin [2])?
A: Its value is 1.2 times.

Q: With leucine phosphonic acid [LPA] as the compound, how does the “phosphorus observed in control samples” value (avidin) read?
A: The value was “no phosphorus was observed”.
